According to patent publication US11266686B2, “Metal complexes and methods of treatment” (PROCYPRA THERAPEUTICS LLC, priority 2013, dated 2022):

System: MPTP lesioned mice
Experiment: Stool frequency in MPTP lesioned mice
Type: in vivo, C57BL/6 mice
Conditions: versus vehicle or untreated
Excerpt: Several rodent models of Parkinson's Disease have shown gastrointestinal dysfunction, which has been correlated with the loss of neuronal subpopulations within the enteric nervous system. Intraperitoneal administration of MPTP (1-methyl-4-phenyl-1,2,3,6-tetrahydropyridine) caused a significant reduction in the number of dopaminergic neurons within the substantia nigra pars compacta of C57BL/6 mice. A reduction in neuronal subpopulations within the myenteric plexus of the ileum 21 days after lesioning was also detected and was concomitant with a reduction in stool frequency, indicative of digestive dysfunction.
Patients with neurological diseases, such as Parkinson's Diseases experiencing gastrointestinal disfunction such as constipation, may be associated with the loss of neuronal populations in conjunction with enteric glial cell reactivity within the myenteric plexus of the gastrointestinal tract. Treatment of these patients with metal complexes, such as CuATSM, that are neuroprotective in the central nervous system provides symptom release and also results in disease modifying in the gastrointestinal tract.
MPTP lesioned mice may be treated with the NCD of CuATSM, and the results are compared with untreated mice.

For `CNC1=NN=C(C)C(C)=NN=C(NC)[S][Cu][S]1` [CuATSM, Copper(II) diacetyl-di(N4-methyl)thiosemicarbazone, reference compound], the stool frequency was “improved stool frequency”.
